Test results from PubChem BioAssay (NCI).
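Cells were grown in 96-well plates and exposed to each compound for 48 hours at five concentrations; endpoints were interpolated linearly between bracketing concentrations, or set to the highest concentration if not reached. TGI: concentration producing complete growth inhibition.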

Tests used:
Experiment in all cases: NCI anticancer screen, dose series, 48 h
OVCAR-8 ovarian = tested on: OVCAR-8 ovarian
TK-10 renal = tested on: TK-10 renal
NCI-H460 lung = tested on: NCI-H460 lung
RXF 393 renal = tested on: RXF 393 renal
OVCAR-4 ovarian = tested on: OVCAR-4 ovarian
A549 NSCLC = tested on: A549 NSCLC
U251 CNS = tested on: U251 CNS
OVCAR-3 ovarian = tested on: OVCAR-3 ovarian
HCT-116 colon = tested on: HCT-116 colon
SK-MEL-28 melanoma = tested on: SK-MEL-28 melanoma
SNB-75 CNS = tested on: SNB-75 CNS
K-562 leukemia = tested on: K-562 leukemia
HOP-62 NSCLC = tested on: HOP-62 NSCLC
MCF7 breast = tested on: MCF7 breast
NCI/ADR-RES ovarian = tested on: NCI/ADR-RES ovarian
DU-145 prostate = tested on: DU-145 prostate
HS 578T breast = tested on: HS 578T breast

| Structure (SMILES) | TGI (OVCAR-8 ovarian) | TGI (TK-10 renal) | TGI (NCI-H460 lung) | TGI (RXF 393 renal) | TGI (OVCAR-4 ovarian) | TGI (A549 NSCLC) | TGI (U251 CNS) | TGI (OVCAR-3 ovarian) | TGI (HCT-116 colon) | TGI (SK-MEL-28 melanoma) | TGI (SNB-75 CNS) | TGI (K-562 leukemia) | TGI (HOP-62 NSCLC) | TGI (MCF7 breast) | TGI (NCI/ADR-RES ovarian) | TGI (DU-145 prostate) | TGI (HS 578T breast) |
| --- | --- | --- | --- | --- | --- | --- | --- | --- | --- | --- | --- | --- | --- | --- | --- | --- | --- |
| O=C(O)CCc1cccc2c1oc1c(CCC(=O)O)cccc12 | > 100 µM | > 100 µM | > 100 µM | > 100 µM | > 100 µM | > 100 µM | > 100 µM | > 100 µM | > 100 µM | > 100 µM | > 100 µM | > 100 µM | – | – | – | – | – |
| CC(C)C(Sc1nc(-c2ccccc2)c(-c2ccccc2)[nH]1)C(=O)NN (stereo not given) | > 100 µM | > 100 µM | > 100 µM | > 100 µM | > 100 µM | > 100 µM | > 100 µM | > 100 µM | > 100 µM | > 100 µM | > 100 µM | – | > 100 µM | – | – | – | – |
| COc1c(Br)cc(/C=C(\C#N)c2cccnc2)cc1Br | > 100 µM | > 100 µM | > 100 µM | > 100 µM | > 100 µM | > 100 µM | > 100 µM | > 100 µM | > 100 µM | > 100 µM | > 100 µM | > 100 µM | > 100 µM | > 100 µM | > 100 µM | > 100 µM | – |
| COc1cccc(N2C(=O)/C(=C\c3ccccc3)SC2c2cc(OC)c(OC)c(OC)c2)c1 (stereo not given) | > 100 µM | > 100 µM | – | – | > 100 µM | > 100 µM | > 100 µM | – | > 100 µM | > 100 µM | 57.3 µM | > 100 µM | > 100 µM | > 100 µM | > 100 µM | > 100 µM | > 100 µM |
| O=c1n(-c2ccccc2)c(=O)n2n1C1Cc3ccccc3C12 (stereo not given) | > 100 µM | > 100 µM | > 100 µM | – | – | > 100 µM | > 100 µM | > 100 µM | > 100 µM | > 100 µM | > 100 µM | > 100 µM | > 100 µM | > 100 µM | > 100 µM | > 100 µM | > 100 µM |
| CC(=O)N(C(C)=O)n1c(-c2ccccc2)n[nH]c1=O | > 100 µM | > 100 µM | – | > 100 µM | > 100 µM | > 100 µM | > 100 µM | > 100 µM | > 100 µM | > 100 µM | > 100 µM | > 100 µM | > 100 µM | > 100 µM | > 100 µM | > 100 µM | – |
| COc1cc2c(cc1OC)[C@H]1C(COC(=O)c3ccccc3)CSC(=Nc3ccccc3)N1CC2 (stereo not given in full) | > 100 µM | > 100 µM | > 100 µM | > 100 µM | > 100 µM | > 100 µM | > 100 µM | > 100 µM | > 100 µM | > 100 µM | > 100 µM | – | > 100 µM | – | – | – | – |
| CCOC(=O)/C(=C\c1cccs1)P(=O)(OCC)OCC | 77.2 µM | > 100 µM | 46.9 µM | 29.4 µM | 37.5 µM | 50.8 µM | 41.9 µM | 41.8 µM | 33.7 µM | 32.7 µM | > 100 µM | > 100 µM | > 100 µM | – | – | – | – |
| Cc1ccc(N2CCC3(CC2)OCCO3)cc1 | > 100 µM | > 100 µM | > 100 µM | > 100 µM | > 100 µM | > 100 µM | > 100 µM | > 100 µM | > 100 µM | > 100 µM | > 100 µM | > 100 µM | > 100 µM | – | > 100 µM | > 100 µM | > 100 µM |
| COCn1cnc2c(=O)n(-c3ccc(OC)cc3)c(=S)n(-c3ccc(OC)cc3)c21 | > 100 µM | > 100 µM | > 100 µM | > 100 µM | > 100 µM | > 100 µM | > 100 µM | > 100 µM | > 100 µM | > 100 µM | > 100 µM | > 100 µM | > 100 µM | > 100 µM | > 100 µM | > 100 µM | – |
| CN1CCCOC(c2ccc([N+](=O)[O-])cc2)O1 (stereo not given) | > 100 µM | > 100 µM | > 100 µM | > 100 µM | > 100 µM | > 100 µM | > 100 µM | > 100 µM | > 100 µM | > 100 µM | > 100 µM | > 100 µM | > 100 µM | > 100 µM | > 100 µM | > 100 µM | – |
| COc1ccc(NC(=O)/C(=N/NC(N)=S)C2C(=O)NC(=S)NC2=O)c(OC)c1 | > 100 µM | > 100 µM | > 100 µM | – | > 100 µM | > 100 µM | > 100 µM | > 100 µM | > 100 µM | > 100 µM | > 100 µM | > 100 µM | – | > 100 µM | > 100 µM | > 100 µM | > 100 µM |
| COc1ccc(OC2OC(COC(c3ccccc3)(c3ccc(OC)cc3)c3ccc(OC)cc3)C(O)C(O)C2O)cc1 (stereo not given) | – | – | 9.21 µM | – | – | 11.8 µM | 13.3 µM | 14.7 µM | 10.7 µM | 10.1 µM | 14 µM | 10.2 µM | 24.5 µM | 14.7 µM | 29.2 µM | 35.7 µM | 19.1 µM |
| O=C(Nc1ccccc1)n1[nH]c(=O)n(-c2ccccc2)c1=O | > 100 µM | > 100 µM | > 100 µM | – | > 100 µM | > 100 µM | > 100 µM | – | > 100 µM | > 100 µM | > 100 µM | > 100 µM | – | > 100 µM | > 100 µM | > 100 µM | > 100 µM |
| CN(C)CC1CCCC(CN(C)C)C1=NOC(=O)c1ccccc1 (stereo not given) | > 100 µM | > 100 µM | > 100 µM | – | – | > 100 µM | > 100 µM | > 100 µM | > 100 µM | > 100 µM | > 100 µM | > 100 µM | > 100 µM | – | – | – | – |
| C=CCc1ccccc1CC1(OCC)OC(=O)c2ccccc21 (stereo not given) | > 100 µM | > 100 µM | > 100 µM | > 100 µM | > 100 µM | > 100 µM | > 100 µM | > 100 µM | > 100 µM | > 100 µM | 53.1 µM | > 100 µM | > 100 µM | > 100 µM | – | > 100 µM | > 100 µM |
| COc1ccc(N2C(=O)C3c4[nH]c5ccccc5c4C4CC(C)CC(C)C4C3C2=O)cc1 (stereo not given) | > 100 µM | – | – | > 100 µM | > 100 µM | > 100 µM | > 100 µM | – | > 100 µM | > 100 µM | > 100 µM | > 100 µM | > 100 µM | – | – | – | – |
| CC(O)c1ccc[n+](Cc2ccccc2)c1 (stereo not given) | > 400 µM | > 400 µM | > 400 µM | > 400 µM | – | > 400 µM | > 400 µM | > 400 µM | > 400 µM | > 400 µM | – | > 400 µM | > 400 µM | – | – | – | – |
| CN(N)/N=N/c1nc[nH]c1[N+](=O)[O-] | > 100 µM | > 100 µM | > 100 µM | > 100 µM | > 100 µM | > 100 µM | > 100 µM | > 100 µM | > 100 µM | > 100 µM | > 100 µM | 73 µM | > 100 µM | – | > 100 µM | > 100 µM | > 100 µM |
| O=S(Nc1ccccc1)c1ccc(Cl)c(Cl)c1 (stereo not given) | > 100 µM | > 100 µM | > 100 µM | – | > 100 µM | > 100 µM | 34.2 µM | > 100 µM | > 100 µM | > 100 µM | – | > 100 µM | 79.1 µM | > 100 µM | > 100 µM | > 100 µM | 84.7 µM |
| CCN(CC)c1c(-c2c(N(CC)CC)c(OC(C)=O)c3sccn3c2=O)c(=O)n2ccsc2c1OC(C)=O | > 100 µM | > 100 µM | > 100 µM | – | > 100 µM | – | > 100 µM | > 100 µM | > 100 µM | > 100 µM | 39.3 µM | > 100 µM | 46.9 µM | – | > 100 µM | > 100 µM | > 100 µM |
| CN(C(=O)C1CCCCCC1=O)c1ccccc1Cl (stereo not given) | > 100 µM | > 100 µM | > 100 µM | > 100 µM | > 100 µM | > 100 µM | > 100 µM | > 100 µM | > 100 µM | > 100 µM | > 100 µM | – | > 100 µM | – | > 100 µM | > 100 µM | – |
| NC(CCC(=O)NC(CSC(=O)N(O)c1ccccc1)C(=O)NCC(=O)O)C(=O)O (stereo not given) | > 1000 µM | > 1000 µM | > 1000 µM | > 1000 µM | > 1000 µM | > 1000 µM | > 1000 µM | > 1000 µM | > 1000 µM | > 1000 µM | > 1000 µM | > 1000 µM | > 1000 µM | – | – | – | – |
| C/C(=N\NC(=O)c1ccncc1)c1ccccc1F | > 10 µM | > 10 µM | > 10 µM | > 10 µM | – | > 10 µM | > 10 µM | > 10 µM | > 10 µM | > 10 µM | > 10 µM | > 10 µM | > 10 µM | > 10 µM | > 10 µM | – | – |
| COc1ccc2c(c1)Oc1cc(O)ccc1[C@@H]2c1ccccc1C(=O)NC(C)c1ccccc1 (stereo not given in full) | 46.7 µM | 50.7 µM | 27.4 µM | 29.9 µM | – | 42.5 µM | 28.8 µM | 34.5 µM | 24.8 µM | 31.3 µM | 36.3 µM | > 100 µM | 35.8 µM | – | – | – | – |
